The supplement of paper PMC10733146

Key:
Assay in all cases: viability relative to DMSO control (fraction); higher = less drug effect (more viable cells)
Settings in all cases: 48 h
Bortezomib = compound: CC(C)C[C@H](NC(=O)[C@H](Cc1ccccc1)NC(=O)c1cnccn1)B(O)O [Bortezomib]
How it was run: (§1)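 Cells were incubated for 48 h at 37 °C and 5% CO2 in RPMI-1640 with penicillin/streptomycin, L-glutamine and human serum, at 4 × 10^4 cells per well in 384-well plates with compounds pre-plated at five concentrations, one well each. These were primary mononuclear tumour cells, fresh or cryopreserved, Ficoll-isolated from blood or bone marrow or obtained from processed lymph node. Viability values are CellTiter-Glo luminescence relative to the median of 16 inner DMSO wells.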

Rigosertib = compound: COc1cc(OC)c(/C=C/S(=O)(=O)Cc2ccc(OC)c(NCC(=O)O)c2)c(OC)c1 [Rigosertib]
How it was run: as §1

Iniparib = compound: NC(=O)c1ccc(I)c([N+](=O)[O-])c1 [Iniparib]
How it was run: as §1

Ribociclib = compound: CN(C)C(=O)c1cc2cnc(Nc3ccc(N4CCNCC4)cn3)nc2n1C1CCCC1 [Ribociclib]
How it was run: as §1

Pentostatin = compound: OC[C@H]1O[C@@H](n2cnc3c2N=CNC[C@H]3O)C[C@@H]1O [Pentostatin]
How it was run: as §1

Idarubicin = compound: CC(=O)[C@]1(O)Cc2c(O)c3c(c(O)c2[C@@H](O[C@H]2C[C@H](N)[C@H](O)[C@H](C)O2)C1)C(=O)c1ccccc1C3=O [Idarubicin]
How it was run: as §1

8-Azaguanin = compound: Nc1nc2n[nH]nc2c(=O)[nH]1 [8-Azaguanin]
How it was run: as §1

Imatinib = compound: Cc1ccc(NC(=O)c2ccc(CN3CCN(C)CC3)cc2)cc1Nc1nccc(-c2cccnc2)n1 [Imatinib]
How it was run: as §1

Nelarabine = compound: COc1nc(N)nc2c1ncn2[C@@H]1O[C@H](CO)[C@@H](O)[C@@H]1O [Nelarabine]
How it was run: as §1

AG-221 (Enasidinib) = compound: CC(C)(O)CNc1nc(Nc2ccnc(C(F)(F)F)c2)nc(-c2cccc(C(F)(F)F)n2)n1 [AG-221 (Enasidinib)]
How it was run: as §1

Pralatrexate = compound: C#CCC(Cc1cnc2nc(N)nc(N)c2n1)c1ccc(C(=O)N[C@@H](CCC(=O)O)C(=O)O)cc1 [Pralatrexate]
How it was run: as §1

Vincristine = compound: CC[C@]1(O)C[C@H]2CN(CCc3c([nH]c4ccccc34)[C@@](C(=O)OC)(c3cc4c(cc3OC)N(C=O)[C@H]3[C@@](O)(C(=O)OC)[C@H](OC(C)=O)[C@]5(CC)C=CCN6CC[C@]43[C@@H]65)C2)C1 [Vincristine]
How it was run: as §1

Vemurafenib = compound: CCCS(=O)(=O)Nc1ccc(F)c(C(=O)c2c[nH]c3ncc(-c4ccc(Cl)cc4)cc23)c1F [Vemurafenib]
How it was run: as §1

AZD7762 = compound: NC(=O)Nc1cc(-c2cccc(F)c2)sc1C(=O)N[C@H]1CCCNC1 [AZD7762]
How it was run: as §1

Panobinostat = compound: Cc1[nH]c2ccccc2c1CCNCc1ccc(/C=C/C(=O)NO)cc1 [Panobinostat]
How it was run: as §1

primary MCL patient cells (S063)
viability (Bortezomib; 0.008 µM): 0.91
viability (Bortezomib; 0.04 µM): 0.969
viability (Bortezomib; 0.2 µM): 0.884
viability (Bortezomib; 1 µM): 1.03
viability (Bortezomib; 5 µM): 0.9
viability (Rigosertib; 0.008 µM): 0.919
viability (Rigosertib; 0.04 µM): 1.06
viability (Rigosertib; 0.2 µM): 0.885
viability (Rigosertib; 1 µM): 0.969
viability (Rigosertib; 5 µM): 0.521
viability (Iniparib; 0.024 µM): 1.07
viability (Iniparib; 0.12 µM): 1.11
viability (Iniparib; 0.6 µM): 0.978
viability (Iniparib; 3 µM): 1.06
viability (Iniparib; 15 µM): 0.73
viability (Ribociclib; 0.024 µM): 1.05
viability (Ribociclib; 0.12 µM): 0.964
viability (Ribociclib; 0.6 µM): 1.04
viability (Ribociclib; 3 µM): 0.927
viability (Ribociclib; 15 µM): 0.679
viability (Pentostatin; 0.03 µM): 0.96
viability (Pentostatin; 0.15 µM): 0.997
viability (Pentostatin; 0.75 µM): 0.972
viability (Pentostatin; 3.75 µM): 0.927
viability (Pentostatin; 18.76 µM): 0.868
viability (Idarubicin; 0.024 µM): 1.11
viability (Idarubicin; 0.12 µM): 0.475
viability (Idarubicin; 0.6 µM): 0.0231
viability (Idarubicin; 3 µM): 0.0118
viability (Idarubicin; 15 µM): 0.0146
viability (8-Azaguanin; 0.032 µM): 1.03
viability (8-Azaguanin; 0.16 µM): 1.05
viability (8-Azaguanin; 0.8 µM): 0.794
viability (8-Azaguanin; 4 µM): 0.509
viability (8-Azaguanin; 20 µM): 0.252
viability (Imatinib; 0.08 µM): 1.17
viability (Imatinib; 0.4 µM): 1.18
viability (Imatinib; 2 µM): 1.07
viability (Imatinib; 10 µM): 0.952
viability (Nelarabine; 0.024 µM): 1.13
viability (Nelarabine; 0.12 µM): 1.14
viability (Nelarabine; 0.6 µM): 1.1
viability (Nelarabine; 3 µM): 1.15
viability (Nelarabine; 15 µM): 1.1
viability (AG-221 (Enasidinib); 0.024 µM): 0.914
viability (AG-221 (Enasidinib); 0.12 µM): 0.894
viability (AG-221 (Enasidinib); 0.6 µM): 1.05
viability (AG-221 (Enasidinib); 3 µM): 0.84
viability (AG-221 (Enasidinib); 15 µM): 0.943
viability (Pralatrexate; 0.024 µM): 1
viability (Pralatrexate; 0.12 µM): 0.963
viability (Pralatrexate; 0.6 µM): 0.911
viability (Pralatrexate; 3 µM): 0.901
viability (Pralatrexate; 15 µM): 0.917
viability (Vincristine; 0.016 µM): 0.533
viability (Vincristine; 0.08 µM): 0.17
viability (Vincristine; 0.4 µM): 0.134
viability (Vincristine; 2 µM): 0.139
viability (Vincristine; 10 µM): 0.0969
viability (Vemurafenib; 0.024 µM): 1.02
viability (Vemurafenib; 0.12 µM): 1.01
viability (Vemurafenib; 0.6 µM): 1.04
viability (Vemurafenib; 3 µM): 1.04
viability (Vemurafenib; 15 µM): 1.04
viability (AZD7762; 0.024 µM): 0.635
viability (AZD7762; 0.12 µM): 0.249
viability (AZD7762; 0.6 µM): 0.16
viability (AZD7762; 3 µM): 0.0982
viability (AZD7762; 15 µM): 0.123
viability (Panobinostat; 0.00064 µM): 1.03
viability (Panobinostat; 0.0032 µM): 0.93
viability (Panobinostat; 0.016 µM): 0.182
viability (Panobinostat; 0.08 µM): 0.0167
viability (Panobinostat; 0.4 µM): 0.0196

primary MCL patient cells (S068)
viability (Bortezomib; 0.008 µM): 0.942
viability (Bortezomib; 0.04 µM): 0.932
viability (Bortezomib; 0.2 µM): 0.964
viability (Bortezomib; 1 µM): 0.982
viability (Bortezomib; 5 µM): 0.956
viability (Rigosertib; 0.008 µM): 0.94
viability (Rigosertib; 0.04 µM): 0.934
viability (Rigosertib; 0.2 µM): 0.846
viability (Rigosertib; 1 µM): 0.835
viability (Rigosertib; 5 µM): 0.37
viability (Iniparib; 0.024 µM): 1.14
viability (Iniparib; 0.12 µM): 1.1
viability (Iniparib; 0.6 µM): 1.01
viability (Iniparib; 3 µM): 1.04
viability (Iniparib; 15 µM): 0.984
viability (Ribociclib; 0.024 µM): 0.848
viability (Ribociclib; 0.12 µM): 0.868
viability (Ribociclib; 0.6 µM): 0.645
viability (Ribociclib; 3 µM): 0.487
viability (Ribociclib; 15 µM): 0.362
viability (Pentostatin; 0.03 µM): 0.654
viability (Pentostatin; 0.15 µM): 0.644
viability (Pentostatin; 0.75 µM): 0.736
viability (Pentostatin; 3.75 µM): 0.526
viability (Pentostatin; 18.76 µM): 0.448
viability (Idarubicin; 0.024 µM): 0.835
viability (Idarubicin; 0.12 µM): 0.457
viability (Idarubicin; 0.6 µM): 0.154
viability (Idarubicin; 3 µM): 0.017
viability (Idarubicin; 15 µM): 0.021
viability (8-Azaguanin; 0.032 µM): 0.911
viability (8-Azaguanin; 0.16 µM): 1.01
viability (8-Azaguanin; 0.8 µM): 0.725
viability (8-Azaguanin; 4 µM): 0.486
viability (8-Azaguanin; 20 µM): 0.346
viability (Imatinib; 0.016 µM): 1.19
viability (Imatinib; 2 µM): 0.976
viability (Imatinib; 10 µM): 0.861
viability (Nelarabine; 0.024 µM): 0.995
viability (Nelarabine; 0.12 µM): 1.1
viability (Nelarabine; 0.6 µM): 0.94
viability (Nelarabine; 3 µM): 0.901
viability (Nelarabine; 15 µM): 0.682
viability (AG-221 (Enasidinib); 0.024 µM): 0.778
viability (AG-221 (Enasidinib); 0.12 µM): 0.792
viability (AG-221 (Enasidinib); 0.6 µM): 1.01
viability (AG-221 (Enasidinib); 3 µM): 1.22
viability (AG-221 (Enasidinib); 15 µM): 1.73
viability (Pralatrexate; 0.024 µM): 1.03
viability (Pralatrexate; 0.12 µM): 1.01
viability (Pralatrexate; 0.6 µM): 1.03
viability (Pralatrexate; 3 µM): 0.965
viability (Pralatrexate; 15 µM): 0.99
viability (Vincristine; 0.016 µM): 0.473
viability (Vincristine; 0.08 µM): 0.413
viability (Vincristine; 0.4 µM): 0.357
viability (Vincristine; 2 µM): 0.28
viability (Vincristine; 10 µM): 0.253
viability (Vemurafenib; 0.024 µM): 1.04
viability (Vemurafenib; 0.12 µM): 0.988
viability (Vemurafenib; 0.6 µM): 1.05
viability (Vemurafenib; 3 µM): 1.15
viability (Vemurafenib; 15 µM): 1.19
viability (AZD7762; 0.024 µM): 0.688
viability (AZD7762; 0.12 µM): 0.491
viability (AZD7762; 0.6 µM): 0.369
viability (AZD7762; 3 µM): 0.248
viability (AZD7762; 15 µM): 0.374
viability (Panobinostat; 0.00064 µM): 0.613
viability (Panobinostat; 0.0032 µM): 0.284
viability (Panobinostat; 0.016 µM): 0.13
viability (Panobinostat; 0.08 µM): 0.105
viability (Panobinostat; 0.4 µM): 0.105

primary T-PLL patient cells (S008)
viability (Bortezomib; 0.008 µM): 0.88
viability (Bortezomib; 0.04 µM): 1.02
viability (Bortezomib; 0.2 µM): 0.872
viability (Bortezomib; 1 µM): 0.921
viability (Bortezomib; 5 µM): 0.879
viability (Rigosertib; 0.008 µM): 1.07
viability (Rigosertib; 0.04 µM): 1.02
viability (Rigosertib; 0.2 µM): 1.07
viability (Rigosertib; 1 µM): 0.991
viability (Rigosertib; 5 µM): 0.98
viability (Iniparib; 0.024 µM): 1.11
viability (Iniparib; 0.12 µM): 0.994
viability (Iniparib; 0.6 µM): 0.915
viability (Iniparib; 3 µM): 0.962
viability (Iniparib; 15 µM): 0.94
viability (Ribociclib; 0.024 µM): 1.04
viability (Ribociclib; 0.12 µM): 1.03
viability (Ribociclib; 0.6 µM): 1.05
viability (Ribociclib; 3 µM): 1.01
viability (Ribociclib; 15 µM): 0.902
viability (Pentostatin; 0.03 µM): 1.04
viability (Pentostatin; 0.15 µM): 0.989
viability (Pentostatin; 0.75 µM): 1
viability (Pentostatin; 3.75 µM): 0.892
viability (Pentostatin; 18.76 µM): 0.917
viability (Idarubicin; 0.024 µM): 0.918
viability (Idarubicin; 0.12 µM): 0.591
viability (Idarubicin; 0.6 µM): 0.128
viability (Idarubicin; 3 µM): 0.0427
viability (Idarubicin; 15 µM): 0.03
viability (8-Azaguanin; 0.032 µM): 0.898
viability (8-Azaguanin; 0.16 µM): 0.991
viability (8-Azaguanin; 0.8 µM): 0.91
viability (8-Azaguanin; 4 µM): 0.858
viability (8-Azaguanin; 20 µM): 0.712
viability (Imatinib; 0.08 µM): 0.971
viability (Imatinib; 0.4 µM): 1.07
viability (Imatinib; 2 µM): 0.994
viability (Imatinib; 10 µM): 0.978
viability (Nelarabine; 0.024 µM): 1.03
viability (Nelarabine; 0.12 µM): 0.99
viability (Nelarabine; 0.6 µM): 0.942
viability (Nelarabine; 3 µM): 0.906
viability (Nelarabine; 15 µM): 0.758
viability (AG-221 (Enasidinib); 0.024 µM): 0.915
viability (AG-221 (Enasidinib); 0.12 µM): 0.887
viability (AG-221 (Enasidinib); 0.6 µM): 1.04
viability (AG-221 (Enasidinib); 3 µM): 1.01
viability (AG-221 (Enasidinib); 15 µM): 0.899
viability (Pralatrexate; 0.024 µM): 1.09
viability (Pralatrexate; 0.12 µM): 0.978
viability (Pralatrexate; 0.6 µM): 0.965
viability (Pralatrexate; 3 µM): 0.982
viability (Pralatrexate; 15 µM): 0.971
viability (Vincristine; 0.016 µM): 0.66
viability (Vincristine; 0.08 µM): 0.34
viability (Vincristine; 0.4 µM): 0.269
viability (Vincristine; 2 µM): 0.22
viability (Vincristine; 10 µM): 0.164
viability (Vemurafenib; 0.024 µM): 0.958
viability (Vemurafenib; 0.12 µM): 0.983
viability (Vemurafenib; 0.6 µM): 0.975
viability (Vemurafenib; 3 µM): 0.998
viability (Vemurafenib; 15 µM): 1.02
viability (AZD7762; 0.024 µM): 0.989
viability (AZD7762; 0.12 µM): 1.03
viability (AZD7762; 0.6 µM): 0.963
viability (AZD7762; 3 µM): 0.971
viability (AZD7762; 15 µM): 0.933
viability (Panobinostat; 0.00064 µM): 0.965
viability (Panobinostat; 0.0032 µM): 0.985
viability (Panobinostat; 0.016 µM): 0.895
viability (Panobinostat; 0.08 µM): 0.818
viability (Panobinostat; 0.4 µM): 0.723
